Experiments:
[1] = tested on: Ocular Hypertensive Rabbit; test: Ocular blood flow in ocular hypertensive rabbit (colored microspheres); format: in vivo; details: 1% topical instillation, 30 minutes after drug instillation
Method: 0.5% alcaine was purchased commercially. A 20% sterilized hypertonic saline solution was prepared in the laboratory. Colored microspheres were purchased from E-Z Trac (Los Angeles, Calif.). The colored microspheres were diluted with saline containing 0.01% (v/v) of Tween 80 to prevent the microspheres from sticking together. Two million microspheres in 0.4 ml were injected at each time point.
Female New Zealand white rabbits weighing 2.-3.0 kg, were purchased commercially. Animal care and treatment were followed by the institutional guidelines.
Rabbits were anesthetized with 35 mg/kg ketamine and 5 mg/kg xylazine by intramuscular injection. Half of the initial dose was given every one hour thereafter. The left ventricle was cannulated through the right carotid artery for injection of colored microspheres and the femoral artery was cannulated for collection of blood samples. The left eye was treated with one drop of proparacaine hydrochloride ophthalmic solution (Bausch & Lomb, Inc., Tampa, Fla., USA). The needle was inserted directly into the anterior chamber of the left eye, which was connected to the 40 mmHg saline manometer. The ocular hypertensive model reduced the ocular blood flow to approximately one third of the normal valued. 50 μl of 10 g/l flavone or vehicle (30% HP-β-CD solution) was instilled topically to the left eye 30 minutes after the ocular hypertensive model was built. The ocular blood flow was measured by colored microspheres at 0, 30, 60 and 120 minutes after treatment with the compounds or vehicle. At each time point, 2 million microspheres were injected as a reference, and blood samples were taken from the femoral artery for exactly one minute following injection of the microspheres. The blood sample was collected in a heparinized tube and the volume was recorded. The rabbits were euthanized with an injection of 100 mg/kg pentobarbital sodium after the last blood sampling. The left eyes were enucleated and dissected into the iris, ciliary body, retina and choroid. All the tissues were weighed.
The details of sample processing and microsphere counting were provided by E-Z Trac (Los Angeles, Calif., USA). In brief, the blood hemolysis reagent was added to the microfuge tubes with the blood sample, then vortexed and centrifuged for 30 minutes at 6000 rpm. The supernatant was removed, and then tissue/blood digest reagents I and II were added. The tubes were capped, vortexed, and centrifuged for 30 minutes. […] The number of microspheres was counted by the hemocytometer under the microscope. […] The protocol thereafter was the same as that used to process the blood samples, and the microspheres were counted.
The blood flow of each tissue at a certain time point was calculated according to the following formula: Qm=(Cm×Qr)/Cr. […]

[2] = tested on: rat's retinal function after ischemic insult; test: b-wave recovery of retinal function after ischemic insult (ERG); format: in vivo; details: 1% instilled topically
Method: The retinal ischemia experiment has been described previously (Chiou et al., J. Ocular Pharmacol. 9:179-185, 1993, and Chiou et al., J. Ocular Pharmacol. 10:493-498, 1994). Electroretinograms (ERG) were carried out to assess the retinal function prior to and after the ischemic insult. ERGs were recorded using Ag/AgCl electrodes placed in contact with the cornea. One stainless steel needle was inserted subcutaneously between the two eyes as a reference electrode, and another needle was inserted subcutaneously into the neck as a ground electrode. A photostimulator (Grass PS22 Flash) was used to produce flashes of light 5 inches from the eye, and the ERG potentials were recorded on a polygraph. The ERG system was purchased from LKC Technologies, Inc. (Gaithersburg, Md.). A single flash (10 msec) of white light stimuli was used to evoke ERG a- and b-waves. Peak b-wave amplitudes were measured from the trough of the a-wave to the peak of the b-wave.
Long-Evans rats (200-250 g), dark-adapted at least 2 hours, were anaesthetized intramuscularly with ketamine (35 mg/kg) plus xylazine (5 mg/kg). Half of the initial dose was administrated at one hour intervals to maintain adequate anesthesia. The pupils were dilated with 1% tropicamide (50 μl) for ERG experiments. Retinal ischemia was produced by occlusion of the central retina and posterior ciliary arteries using a ligature placed around the optic nerve and posterior ciliary artery. The ligature was drawn tightly through a micropipette tip placed at the base of the eyeball socket to occlude the retinal vessels for 30 min. After 30 min of retinal ischemia, the ligature was liberated and the retinal arteries allowed to reperfuse. ERGs were measured at 30, 60, 90, 120, 180 and 240 min thereafter. The compounds and vehicle were administered topically before occlusion of the central retinal arteries.

## CC(C)=CCC/C(C)=C/Cc1c(O)cc2c(c1O)C(=O)C[C@@H](c1ccc(O)c(O)c1)O2 [Formula (I)]
[1]
  blood flow in choroid: significantly increased
  blood flow in iris: significantly increased
[2]; after 30 min retinal ischemia and reperfusion
  b-wave amplitude recovery, of the original level: approximately 50%
[2]; after drug application
  duration of drug action on b-wave recovery: at least 240 min

Source: patent US9370503B1, “Compounds for treating ocular diseases” (priority 2015, dated 2016)
